Source: US20250320194A1, “PHARMACEUTICALLY ACCEPTABLE SALT AND CRYSTAL FORM OF FUSED PYRIDINE RING DERIVATIVE AND PREPARATION METHOD THEREFOR” (Jiangsu Hengrui Pharmaceuticals Co., Ltd., priority 2021, published 2025)

How the values were obtained:
[1] = Hygroscopicity of salt crystal forms (DVS, 25° C.); assay type: physicochemical; conditions: for Hygroscopicity 0.0% RH-95.0% RH / Hygroscopicity 20.0% RH-80.0% RH: DVS, 25° C.; for Crystal form: after DVS
Protocol: The test adopts SMS DVS Advantage, at 25° C., with a humidity range of 0 to 95% and a step of 10%. The judgment standard is that the dM/dT of each gradient mass change is less than 0.002%, TMAX is 360 minutes, and the cycle is two times. • 5. Cation chromatography • Instrument model: DIONEX AQUION ion chromatograph, USA • Detection method: conductivity; separation column: IonPac CS16-CG16 • Eluent: MSA 20Mm • Flow rate: 1.0 ml/min • 6. Anion chromatography • Instrument model: DIONEX INTEGRION HPIC ion chromatograph, USA • Detection method: conductivity; separation column: DionexIonPac™-AS11-HC • Eluent: EGC-500-KOH • Flow rate: 1.5 ml/min
Using Surface Measurement Systems advantage, at 25° C., the humidity starts from 50%, the humidity range is 0% to 95%, the step is 10%. The judgment standard was that the dM/dT of each gradient mass change is less than 0.002%, TMAX360 min, and the cycle was two times. The hygroscopicity of different salt crystal forms of the compound of formula I was investigated respectively.

[2] = Long-term/accelerated stability; conditions: for physical and chemical stability (conclusion): long-term accelerated stability conditions for 6 months
[3] = Stability under influencing factors (high temperature, high humidity, open, 30 days)

CC(C)(C#Cc1nc(C(Cc2cc(F)cc(F)c2)NC(=O)Cn2nc(C(F)(F)F)c3c2C(F)(F)C2CC32)c(-c2ccc(Cl)c3c(NS(C)(=O)=O)nn(CC(F)(F)F)c23)c2c1CCC2)S(C)(=O)=O.O=S(=O)(O)O (centres unmarked) [Crystal form A of hydrosulfate]
Hygroscopicity 0.0% RH-95.0% RH [1]: 4.55%
Hygroscopicity 20.0% RH-80.0% RH [1]: 1.59%
Crystal form [1]: Unchanged
Purity % ([2]; 4° C., 1 month): 99.09%
Purity % ([2]; 4° C., 2 months): 99.08%
Purity % ([2]; 4° C., 3 months): 99.08%
Purity % ([2]; 4° C., 6 months): 99.09%
Purity % ([2]; 4° C., Start): 99.09%
Purity % ([2]; 25° C., 60% RH, 1 month): 99.01%
Purity % ([2]; 25° C., 60% RH, 2 months): 98.99%
Purity % ([2]; 25° C., 60% RH, 3 months): 99.03%
Purity % ([2]; 25° C., 60% RH, 6 months): 98.91%
Purity % ([2]; 25° C., 60% RH, Start): 99.09%
Purity % ([2]; 40° C., 75% RH, 1 month): 98.83%
Purity % ([2]; 40° C., 75% RH, 2 months): 98.99%
Purity % ([2]; 40° C., 75% RH, 3 months): 98.98%
Purity % ([2]; 40° C., 75% RH, 6 months): 98.76%
Purity % ([2]; 40° C., 75% RH, Start): 99.09%
physical and chemical stability (conclusion) [2]: good physical and chemical stability
physical stability (conclusion) ([3]; 40° C., 60° C., 7500 RH and 92.5% RH, crystal form not transformed): good physical stability
chemical stability (conclusion) ([3]; 40° C., 7500 RH and 92.5%0 RH, not at high temperature (60° C.)): good chemical stability
Color, properties ([3]; 40° C., 5 days): White solid
Crystal form ([3]; 40° C., 5 days): Unchanged
Purity % ([3]; 40° C., 5 days): 99.06%
Color, properties ([3]; 40° C., 10 days): White solid
Crystal form ([3]; 40° C., 10 days): Unchanged
Purity % ([3]; 40° C., 10 days): 99.01%
Color, properties ([3]; 40° C., 30 days): White solid
Crystal form ([3]; 40° C., 30 days): Unchanged
Purity % ([3]; 40° C., 30 days): 99.03%
Color, properties ([3]; 60° C., 5 days): White solid
Crystal form ([3]; 60° C., 5 days): Unchanged
Purity % ([3]; 60° C., 5 days): 96.46%
Color, properties ([3]; 60° C., 10 days): White solid
Crystal form ([3]; 60° C., 10 days): Unchanged
Purity % ([3]; 60° C., 10 days): 96.22%
Color, properties ([3]; 60° C., 30 days): White solid
Crystal form ([3]; 60° C., 30 days): Unchanged
Purity % ([3]; 60° C., 30 days): 95.17%
Color, properties ([3]; 75% RH, 5 days): White solid
Crystal form ([3]; 75% RH, 5 days): Unchanged
Purity % ([3]; 75% RH, 5 days): 99.11%
Color, properties ([3]; 75% RH, 10 days): White solid
Crystal form ([3]; 75% RH, 10 days): Unchanged
Purity % ([3]; 75% RH, 10 days): 99.11%
Color, properties ([3]; 75% RH, 30 days): White solid
Crystal form ([3]; 75% RH, 30 days): Unchanged
Purity % ([3]; 75% RH, 30 days): 99.05%
Color, properties ([3]; 92.5% RH, 5 days): White solid
Crystal form ([3]; 92.5% RH, 5 days): Unchanged
Purity % ([3]; 92.5% RH, 5 days): 99.18%
Color, properties ([3]; 92.5% RH, 10 days): White solid
Crystal form ([3]; 92.5% RH, 10 days): Unchanged
Purity % ([3]; 92.5% RH, 10 days): 99.02%
Color, properties ([3]; 92.5% RH, 30 days): White solid
Crystal form ([3]; 92.5% RH, 30 days): Unchanged
Purity % ([3]; 92.5% RH, 30 days): 99.07%
Color, properties ([3]; Start, 0 days): White solid
Purity % ([3]; Start, 0 days): 99.09%

CC(C)(C#Cc1nc(C(Cc2cc(F)cc(F)c2)NC(=O)Cn2nc(C(F)(F)F)c3c2C(F)(F)C2CC32)c(-c2ccc(Cl)c3c([N-]S(C)(=O)=O)nn(CC(F)(F)F)c23)c2c1CCC2)S(C)(=O)=O.C[N+](C)(C)CCO (centres unmarked) [Crystal form B of the choline salt]
Hygroscopicity 0.0% RH-95.0% RH [1]: 9.92%
Hygroscopicity 20.0% RH-80.0% RH [1]: 5.96%
Crystal form [1]: Unchanged
Color, properties ([3]; 40° C., 5 days): White solid
Crystal form ([3]; 40° C., 5 days): Unchanged
Purity % ([3]; 40° C., 5 days): 98.34%
Color, properties ([3]; 40° C., 10 days): White solid
Crystal form ([3]; 40° C., 10 days): Unchanged
Purity % ([3]; 40° C., 10 days): 98.33%
Color, properties ([3]; 40° C., 30 days): White solid
Crystal form ([3]; 40° C., 30 days): Unchanged
Purity % ([3]; 40° C., 30 days): 98.35%
Color, properties ([3]; 60° C., 5 days): White solid
Crystal form ([3]; 60° C., 5 days): Unchanged
Purity % ([3]; 60° C., 5 days): 98.39%
Color, properties ([3]; 60° C., 10 days): White solid
Crystal form ([3]; 60° C., 10 days): Unchanged
Purity % ([3]; 60° C., 10 days): 98.36%
Color, properties ([3]; 60° C., 30 days): White solid
Crystal form ([3]; 60° C., 30 days): Unchanged
Purity % ([3]; 60° C., 30 days): 98.36%
Color, properties ([3]; 75% RH, 5 days): White solid
Crystal form ([3]; 75% RH, 5 days): Unchanged
Purity % ([3]; 75% RH, 5 days): 98.35%
Color, properties ([3]; 75% RH, 10 days): White solid
Crystal form ([3]; 75% RH, 10 days): Unchanged
Purity % ([3]; 75% RH, 10 days): 98.35%
Color, properties ([3]; 75% RH, 30 days): White solid
Crystal form ([3]; 75% RH, 30 days): Unchanged
Purity % ([3]; 75% RH, 30 days): 98.36%
Color, properties ([3]; 92.5% RH, 5 days): White solid
Crystal form ([3]; 92.5% RH, 5 days): Unchanged
Purity % ([3]; 92.5% RH, 5 days): 98.45%
Color, properties ([3]; 92.5% RH, 10 days): White solid
Crystal form ([3]; 92.5% RH, 10 days): Unchanged
Purity % ([3]; 92.5% RH, 10 days): 98.34%
Color, properties ([3]; 92.5% RH, 30 days): White solid
Crystal form ([3]; 92.5% RH, 30 days): Unchanged
Purity % ([3]; 92.5% RH, 30 days): 98.35%
Color, properties ([3]; Start, 0 days): White solid
Purity % ([3]; Start, 0 days): 98.34%

CC(C)(C#Cc1nc(C(Cc2cc(F)cc(F)c2)NC(=O)Cn2nc(C(F)(F)F)c3c2C(F)(F)C2CC32)c(-c2ccc(Cl)c3c([N-]S(C)(=O)=O)nn(CC(F)(F)F)c23)c2c1CCC2)S(C)(=O)=O.[Na+] (centres unmarked) [Crystal form II of the sodium salt]
Hygroscopicity 0.0% RH-95.0% RH [1]: 34.16%
Hygroscopicity 20.0% RH-80.0% RH [1]: 11.61%
Crystal form [1]: Unchanged
Purity % ([2]; 4° C., 1 month): 97.83%
Purity % ([2]; 4° C., 2 months): 97.83%
Purity % ([2]; 4° C., 3 months): 97.79%
Purity % ([2]; 4° C., 6 months): 97.77%
Purity % ([2]; 4° C., Start): 97.76%
Purity % ([2]; 25° C., 60% RH, 1 month): 97.82%
Purity % ([2]; 25° C., 60% RH, 2 months): 97.82%
Purity % ([2]; 25° C., 60% RH, 3 months): 97.86%
Purity % ([2]; 25° C., 60% RH, 6 months): 97.79%
Purity % ([2]; 25° C., 60% RH, Start): 97.76%
Purity % ([2]; 40° C., 75% RH, 1 month): 97.81%
Purity % ([2]; 40° C., 75% RH, 2 months): 97.80%
Purity % ([2]; 40° C., 75% RH, 3 months): 97.83%
Purity % ([2]; 40° C., 75% RH, 6 months): 97.76%
Purity % ([2]; 40° C., 75% RH, Start): 97.76%
physical and chemical stability (conclusion) [2]: good physical and chemical stability
physical and chemical stability (conclusion) ([3]; 40° C., 60° C., 75% RH and 92.5% RH): good physical and chemical stability
Color, properties ([3]; 40° C., 5 days): White solid
Crystal form ([3]; 40° C., 5 days): Unchanged
Purity % ([3]; 40° C., 5 days, listed as II-crystal form of the sodium salt): 97.88%
Color, properties ([3]; 40° C., 10 days): White solid
Crystal form ([3]; 40° C., 10 days): Unchanged
Purity % ([3]; 40° C., 10 days, listed as II-crystal form of the sodium salt): 97.83%
Color, properties ([3]; 40° C., 30 days): White solid
Crystal form ([3]; 40° C., 30 days): Unchanged
Purity % ([3]; 40° C., 30 days, listed as II-crystal form of the sodium salt): 97.88%
Color, properties ([3]; 60° C., 5 days): White solid
Crystal form ([3]; 60° C., 5 days): Unchanged
Purity % ([3]; 60° C., 5 days, listed as II-crystal form of the sodium salt): 97.86%
Color, properties ([3]; 60° C., 10 days): White solid
Crystal form ([3]; 60° C., 10 days): Unchanged
Purity % ([3]; 60° C., 10 days, listed as II-crystal form of the sodium salt): 97.88%
Color, properties ([3]; 60° C., 30 days): White solid
Crystal form ([3]; 60° C., 30 days): Unchanged
Purity % ([3]; 60° C., 30 days, listed as II-crystal form of the sodium salt): 97.90%
Color, properties ([3]; 75% RH, 5 days): White solid
Crystal form ([3]; 75% RH, 5 days): Unchanged
Purity % ([3]; 75% RH, 5 days, listed as II-crystal form of the sodium salt): 97.84%
Color, properties ([3]; 75% RH, 10 days): White solid
Crystal form ([3]; 75% RH, 10 days): Unchanged
Purity % ([3]; 75% RH, 10 days, listed as II-crystal form of the sodium salt): 97.84%
Color, properties ([3]; 75% RH, 30 days): White solid
Crystal form ([3]; 75% RH, 30 days): Unchanged
Purity % ([3]; 75% RH, 30 days, listed as II-crystal form of the sodium salt): 97.82%
Color, properties ([3]; 92.5% RH, 5 days): White solid
Crystal form ([3]; 92.5% RH, 5 days): Unchanged
Purity % ([3]; 92.5% RH, 5 days, listed as II-crystal form of the sodium salt): 97.84%
Color, properties ([3]; 92.5% RH, 10 days): White solid
Crystal form ([3]; 92.5% RH, 10 days): Unchanged
Purity % ([3]; 92.5% RH, 10 days, listed as II-crystal form of the sodium salt): 97.85%
Color, properties ([3]; 92.5% RH, 30 days): White solid
Crystal form ([3]; 92.5% RH, 30 days): Unchanged
Purity % ([3]; 92.5% RH, 30 days, listed as II-crystal form of the sodium salt): 97.82%
Color, properties ([3]; Start, 0 days): White solid
Purity % ([3]; Start, 0 days): 97.76%

CC(C)(C#Cc1nc(C(Cc2cc(F)cc(F)c2)NC(=O)Cn2nc(C(F)(F)F)c3c2C(F)(F)C2CC32)c(-c2ccc(Cl)c3c([N-]S(C)(=O)=O)nn(CC(F)(F)F)c23)c2c1CCC2)S(C)(=O)=O.[Na+] (centres unmarked) [Crystal form IV of the sodium salt]
Hygroscopicity 0.0% RH-95.0% RH [1]: 1.03%
Hygroscopicity 20.0% RH-80.0% RH [1]: 0.45%
Crystal form [1]: changed
